The target of this test is T1, LUSH (Drosophila melanogaster, UniProt O02372).
T1 sequence (O02372 30-153): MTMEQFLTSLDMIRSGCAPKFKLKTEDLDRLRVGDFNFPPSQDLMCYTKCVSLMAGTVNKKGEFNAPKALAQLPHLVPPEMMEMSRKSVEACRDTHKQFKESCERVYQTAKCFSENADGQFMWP
The test can be described thus: fluorescence titration. The note with it: read-out: dissociation constant. In kind it is binding. Here is the method:
fluorescence titration on LUSH | A saturable NPN fluorescence change was recorded by a fluorometer and the dissociation constant

pKd: −log10 of the molar value.

In the case of `c1ccc(Nc2cccc3ccccc23)cc1` [N-phenyl-1-naphthylamine], the pKd is 5.62.

For the origin of these results see PMC5385555, “Molecular basis for the behavioral effects of the odorant degrading enzyme Esterase 6 in Drosophila” (Scientific Reports, 2017).
